pKi: −log10 of the molar value.

Here are results for 54 compounds from ChEMBL document CHEMBL1143396, “Additivity in the analysis and design of HIV protease inhibitors” (J Med Chem, 2009).

This assay has as its target Human immunodeficiency virus type 1 protease (Human immunodeficiency virus 1, UniProt Q72874, Q7K). In words: Inhibition of HIV1 protease Q7K mutant by FRET method. The settings on record: for pKi: read-out: Ki; for Ki: read-out: pKi (converted).

Usually pKi stands for the negative decadic logarithm of the Ki, by convention in mol/L. With `COc1cccc(S(=O)(=O)N(Cc2cccs2)C[C@@H](O)[C@H](Cc2ccccc2)Nc2cc(F)c(F)c(O)c2F)c1`, the pKi is 6.29 and the Ki is 513 nM.

For `COc1ccc(S(=O)(=O)N(CC(C)C)C[C@@H](O)[C@H](Cc2ccccc2)NC(=O)[C@@H](NC(C)=O)C(C)C)cc1`, the pKi was 10.08 and the Ki is 0.0832 nM.

With `CCCCCN(C[C@@H](O)[C@H](Cc1ccccc1)NC(=O)[C@@H](O)C(C)C)S(=O)(=O)c1ccc2ncsc2c1`, the negative-log Ki (pKi) was 9.09 and the Ki is 0.813 nM.

For the compound `CNC(=O)CCC(=O)N[C@@H](Cc1ccccc1)[C@H](O)CN(C[C@H](C)O)S(=O)(=O)c1ccco1`, the pKi is 6.27 and the Ki was 537 nM.

Consider `CC[C@H](O)CC(=O)N[C@@H](Cc1ccccc1)[C@H](O)CN(CC(C)C)S(=O)(=O)c1ccc(OC)cc1`, for which the pKi was 9.43 and the Ki was 0.372 nM.

As to `Cc1cccc(OS(=O)(=O)N(C[C@H](C)O)C[C@@H](O)[C@H](Cc2ccccc2)NC(=O)C[C@H]2C=CCC2)c1`, the pKi is 4.87 and the Ki was 13500 nM.

`COc1cccc(S(=O)(=O)N(Cc2cccs2)C[C@@H](O)[C@H](Cc2ccccc2)NC(=O)c2cc(O)c(O)c(O)c2)c1`: the pKi was 5.94 and the Ki was 1150 nM.

In the case of `CC[C@H](C)CN(C[C@@H](O)[C@H](Cc1ccccc1)NC(=O)c1cccc(F)c1C)S(=O)(=O)c1ccc2ncsc2c1`, the negative logarithm of the Ki (pKi) is 10.48 and the Ki is 0.0331 nM.

As for `COc1ccc(S(=O)(=O)N(CC(C)C)C[C@@H](O)[C@H](Cc2ccccc2)NC(=O)/C=C(\C)C(F)(F)F)cc1`, the pKi is 9.41 and the Ki is 0.389 nM.

As for `CC[C@@H](C)CN(C[C@@H](O)[C@H](Cc1ccccc1)NC(=O)[C@@H](NC(C)=O)C(C)C)S(=O)(=O)c1ccc2ncsc2c1`, the pKi is 10.24 and the Ki is 0.0575 nM.

In the case of `CC[C@@H](C)CN(C[C@@H](O)[C@H](Cc1ccccc1)NC(=O)C[C@@H](O)CC)S(=O)(=O)c1ccc2ncsc2c1`, the pKi is 10.17 and the Ki is 0.0676 nM.

For `CNC(=O)CCC(=O)N[C@@H](Cc1ccccc1)[C@H](O)CN(C[C@H](C)O)S(=O)(=O)c1cccc(OC)c1`, the pKi is 6.12 and the Ki is 759 nM.

`COc1cccc(S(=O)(=O)N(C[C@@H](O)[C@H](Cc2ccccc2)NC(=O)c2cccc(C)n2)C[C@@H](C)O)c1`: the pKi was 4.91 and the Ki is 12300 nM.

Take `Cc1cccc(OS(=O)(=O)N(CC2CC2)C[C@@H](O)[C@H](Cc2ccccc2)NC(=O)C[C@H]2C=CCC2)c1`: the negative-log Ki (pKi) is 5.69 and the Ki is 2040 nM.

Turning to `COc1ccc(S(=O)(=O)N(CC(C)C)C[C@@H](O)[C@H](Cc2ccccc2)NC(=O)c2cccc(O)c2)cc1`, the pKi was 9.85 and the Ki was 0.141 nM.

Regarding `CC[C@@H](C)CN(C[C@@H](O)[C@H](Cc1ccccc1)NC(=O)C[C@@H](O)CC)S(=O)(=O)c1ccc(OC)cc1`, the pKi was 9.47 and the Ki was 0.339 nM.

Regarding `CC[C@H](C)CN(C[C@@H](O)[C@H](Cc1ccccc1)NC(=O)c1ccc(O)c(O)c1)S(=O)(=O)c1ccc(OC)cc1`, the pKi is 9.42 and the Ki is 0.38 nM.

Regarding `CC(=O)N[C@H](C(=O)N[C@@H](Cc1ccccc1)[C@H](O)CN(CC(C)C)S(=O)(=O)c1ccc2ncsc2c1)C(C)C`, the pKi is 10.00 and the Ki was 0.1 nM.

Consider `CC[C@H](C)CN(C[C@@H](O)[C@H](Cc1ccccc1)NC(=O)[C@@H]1CN(c2cccc(C(C)=O)c2)C(=O)O1)S(=O)(=O)c1ccc(OC)cc1`, for which the pKi was 9.63 and the Ki is 0.234 nM.

On to `O=C(Cc1cccs1)N[C@@H](Cc1ccccc1)[C@H](O)CN(Cc1cccs1)S(=O)(=O)c1cc(F)c(F)cc1F`, for which the pKi is 5.63 and the Ki is 2340 nM.

Regarding `CC[C@H](O)CC(=O)N[C@@H](Cc1ccccc1)[C@H](O)CN(CC(C)C)S(=O)(=O)c1ccc2ncsc2c1`, the pKi was 9.87 and the Ki was 0.135 nM.

Turning to `COc1ccc(S(=O)(=O)N(CC(C)C)C[C@@H](O)[C@H](Cc2ccccc2)NC(=O)[C@@H](O)C(C)C)cc1`, the pKi was 8.73 and the Ki is 1.86 nM.

In the case of `CC[C@@H](C)CN(C[C@@H](O)[C@H](Cc1ccccc1)NC(=O)[C@@H](NC(C)=O)C(C)C)S(=O)(=O)c1ccc(OC)cc1`, the pKi was 10.48 and the Ki was 0.0331 nM.

Regarding `CC[C@H](C)CN(C[C@@H](O)[C@H](Cc1ccccc1)NC(=O)[C@@H]1CN(c2cccc(C(C)=O)c2)C(=O)O1)S(=O)(=O)c1ccc2ncsc2c1`, the pKi was 10.72 and the Ki was 0.0191 nM.

On to `COc1ccc(S(=O)(=O)N(CC(C)C)C[C@@H](O)[C@H](Cc2ccccc2)NC(=O)[C@H](C)NC(C)=O)cc1`, for which the pKi was 9.93 and the Ki was 0.117 nM.

Regarding `Cc1cccc(C(=O)N[C@@H](Cc2ccccc2)[C@H](O)CN(CC2CC2)S(=O)(=O)c2ccco2)n1`, the pKi was below 5.00.

For the compound `Cc1oncc1S(=O)(=O)N(Cc1cccs1)C[C@@H](O)[C@H](Cc1ccccc1)NC(=O)/C=C/C(C)C(F)(F)F` (some centres undefined), the pKi is 4.88 and the Ki was 13200 nM.

Consider `CCCCCN(C[C@@H](O)[C@H](Cc1ccccc1)NC(=O)c1cccc(O)c1)S(=O)(=O)c1ccc(OC)cc1`, for which the pKi is 8.84 and the Ki is 1.45 nM.

As for `COc1ccc(S(=O)(=O)N(CC(C)C)C[C@@H](O)[C@H](Cc2ccccc2)NC(=O)C2(C(N)=O)CC2)cc1`, the pKi was 9.76 and the Ki is 0.174 nM.

As for `CC(=O)/C=C/C(=O)N[C@@H](Cc1ccccc1)[C@H](O)CN(Cc1cccs1)S(=O)(=O)c1cnoc1C`, the pKi is 4.58 and the Ki was 26300 nM.

Consider `Cc1cccc(OS(=O)(=O)N(C[C@@H](O)[C@H](Cc2ccccc2)NC(=O)C[C@H]2C=CCC2)C[C@@H](C)O)c1`, for which the pKi was below 5.00.

With `O=C(C[C@H]1C=CCC1)N[C@@H](Cc1ccccc1)[C@H](O)CN(CC1CC1)S(=O)(=O)c1ccco1`, the pKi was below 5.00.

As for `COc1cccc(S(=O)(=O)N(Cc2cccs2)C[C@@H](O)[C@H](Cc2ccccc2)NC(=O)[C@H]2CCCC[C@@H]2C)c1`, the pKi was 6.23 and the Ki was 589 nM.

`CC[C@@H](C)CN(C[C@@H](O)[C@H](Cc1ccccc1)NC(=O)[C@@H](O)C(C)C)S(=O)(=O)c1ccc(OC)cc1`: the pKi was 9.21 and the Ki is 0.617 nM.

`CC[C@@H](C)CN(C[C@@H](O)[C@H](Cc1ccccc1)NC(=O)C1(C(N)=O)CC1)S(=O)(=O)c1ccc2ncsc2c1`: the pKi is 9.88 and the Ki is 0.132 nM.

For the compound `CC(C)CN(C[C@@H](O)[C@H](Cc1ccccc1)NC(=O)[C@@H](O)C(C)C)S(=O)(=O)c1ccc2ncsc2c1`, the pKi is 9.54 and the Ki is 0.288 nM.

`CCC(=O)CCC(=O)N[C@@H](Cc1ccccc1)[C@H](O)CN(CC(C)C)S(=O)(=O)c1ccc2ncsc2c1`: the pKi was 9.92 and the Ki is 0.12 nM.

Regarding `COc1cccc(S(=O)(=O)N(C[C@H]2CCCO2)C[C@@H](O)[C@H](Cc2ccccc2)NC(=O)[C@@H]2CN(c3cccc(F)c3)C(=O)O2)c1`, the pKi was 6.82 and the Ki was 151 nM.

As to `COc1ccc(S(=O)(=O)N(CC(C)C)C[C@@H](O)[C@H](Cc2ccccc2)NC(=O)/C=C/C(C)=O)cc1`, the pKi is 9.77 and the Ki is 0.17 nM.

On to `CCCCCN(C[C@@H](O)[C@H](Cc1ccccc1)NC(=O)[C@@H](O)C(C)C)S(=O)(=O)c1ccc(OC)cc1`, for which the pKi was 8.61 and the Ki is 2.45 nM.

In the case of `CCCCCN(C[C@@H](O)[C@H](Cc1ccccc1)NC(=O)c1cccc(O)c1)S(=O)(=O)c1ccc2ncsc2c1`, the pKi was 9.51 and the Ki was 0.309 nM.

For the compound `CC[C@@H](C)CN(C[C@@H](O)[C@H](Cc1ccccc1)NC(=O)c1cccc(O)c1)S(=O)(=O)c1ccc(OC)cc1`, the pKi was 9.93 and the Ki is 0.117 nM.

Take `C[C@H](O)CN(C[C@@H](O)[C@H](Cc1ccccc1)NC(=O)C[C@H]1C=CCC1)S(=O)(=O)c1ccco1`: the pKi was 6.59 and the Ki was 257 nM.

Consider `COc1cccc(S(=O)(=O)N(C[C@H](C)O)C[C@@H](O)[C@H](Cc2ccccc2)NC(=O)c2cccc(C)n2)c1`, for which the pKi is 5.32 and the Ki is 4790 nM.

In the case of `C/C(=C\C(=O)N(C)[C@@H](Cc1ccccc1)[C@H](O)CN(Cc1cccs1)S(=O)(=O)c1cc(F)c(F)cc1F)C(F)(F)F`, the pKi is 7.28 and the Ki was 52.5 nM.

In the case of `O=C(N[C@@H](Cc1ccccc1)[C@H](O)CN(Cc1cccs1)S(=O)(=O)c1cc(F)c(F)cc1F)c1ccnnc1`, the pKi is 5.97 and the Ki was 1070 nM.

As to `CC(C)CN(C[C@@H](O)[C@H](Cc1ccccc1)NC(=O)C1(C(N)=O)CC1)S(=O)(=O)c1ccc2ncsc2c1`, the pKi is 9.94 and the Ki was 0.115 nM.

For the compound `CCCCCN(C[C@@H](O)[C@H](Cc1ccccc1)NC(=O)C1(C(N)=O)CC1)S(=O)(=O)c1ccc2ncsc2c1`, the pKi is 9.68 and the Ki was 0.209 nM.

With `CCCCCN(C[C@@H](O)[C@H](Cc1ccccc1)NC(=O)C1(C(N)=O)CC1)S(=O)(=O)c1ccc(OC)cc1`, the pKi is 9.10 and the Ki is 0.794 nM.

Turning to `CCCCCN(C[C@@H](O)[C@H](Cc1ccccc1)NC(=O)CCC(=O)CC)S(=O)(=O)c1ccc2ncsc2c1`, the pKi was 8.79 and the Ki was 1.62 nM.

Regarding `CCC(=O)CCC(=O)N[C@@H](Cc1ccccc1)[C@H](O)CN(C[C@H](C)CC)S(=O)(=O)c1ccc2ncsc2c1`, the pKi is 10.20 and the Ki was 0.0631 nM.

As for `CCCCCN(C[C@@H](O)[C@H](Cc1ccccc1)NC(=O)C[C@@H](O)CC)S(=O)(=O)c1ccc2ncsc2c1`, the pKi is 9.15 and the Ki was 0.708 nM.

`COc1cccc(S(=O)(=O)N(CC2CC2)C[C@@H](O)[C@H](Cc2ccccc2)NC(=O)c2cccc(C)n2)c1`: the pKi is 4.84 and the Ki is 14500 nM.

On to `CC[C@@H](C)CN(C[C@@H](O)[C@H](Cc1ccccc1)NC(=O)C1(C(N)=O)CC1)S(=O)(=O)c1ccc(OC)cc1`, for which the pKi is 9.68.
